The results in this text go back to the NIST ThermoML archive (doi:10.1021/je301353z).

± gives the expanded uncertainty stated by the source.

Data set [1] can be described thus: molar heat capacity at constant pressure. The note with it: 101.33 kPa, Liquid, Small sample (50 mg) DSC.
The conditions of data set [2]: 101.33 kPa, Liquid; for speed of sound: Sing-around technique in a fixed-path interferometer; for mass density: Vibrating tube method.

For `CCn1cc[n+](C)c1.F[B-](F)(F)F` [1-ethyl-3-methylimidazolium tetrafluoroborate], the “molar heat capacity at constant pressure” value stood at 303.41 ± 4.7 J/K/mol in data set [1] (293.15 K), 305.12 ± 4.7 J/K/mol in data set [1] (298.15 K), 306.81 ± 4.8 J/K/mol in data set [1] (303.15 K) and 308.58 ± 4.8 J/K/mol in data set [1] (308.15 K). For the same molecule, the speed of sound in data set [2] (293.15 K) is 1631 ± 2.1 m/s; in data set [2] (298.15 K), 1619.4 ± 2.1 m/s; in data set [2] (303.15 K) it was 1607.6 ± 2.1 m/s; in data set [2] (308.15 K), 1596.3 ± 2.1 m/s. Also, the mass density in data set [2] (293.15 K) is on record as 1283.89 ± 1.7 kg/m3; in data set [2] (298.15 K), 1279.91 ± 1.7 kg/m3; in data set [2] (303.15 K) it was 1276.26 ± 1.7 kg/m3; in data set [2] (308.15 K), 1272.07 ± 1.7 kg/m3.
Regarding `O=C1CCCN1` [2-pyrrolidinone], the “molar heat capacity at constant pressure” value in data set [1] (293.15 K) is 168.36 ± 2.6 J/K/mol; in data set [1] (298.15 K), 169.55 ± 2.6 J/K/mol; in data set [1] (303.15 K), 171.18 ± 2.6 J/K/mol; in data set [1] (308.15 K), 172.37 ± 2.7 J/K/mol. Moreover, the speed of sound is 1650.1 ± 1.3 m/s in data set [2] (293.15 K), 1633.9 ± 1.3 m/s in data set [2] (298.15 K), 1617.1 ± 1.3 m/s in data set [2] (303.15 K) and 1601.8 ± 1.3 m/s in data set [2] (308.15 K). In addition, the mass density in data set [2] (293.15 K) was 1111.28 ± 1 kg/m3; in data set [2] (298.15 K), 1107.15 ± 1 kg/m3; in data set [2] (303.15 K), 1103.02 ± 1 kg/m3; in data set [2] (308.15 K), 1098.9 ± 1 kg/m3.
For `CN1CCCC1=O` [N-methylpyrrolidone], the “molar heat capacity at constant pressure” value amounted to 165.44 ± 2.6 J/K/mol in data set [1] (293.15 K), 166.22 ± 2.6 J/K/mol in data set [1] (298.15 K), 166.92 ± 2.6 J/K/mol in data set [1] (303.15 K) and 167.21 ± 2.6 J/K/mol in data set [1] (308.15 K). The speed of sound is 1565.5 ± 1.3 m/s in data set [2] (293.15 K), 1546 ± 1.2 m/s in data set [2] (298.15 K), 1527.2 ± 1.2 m/s in data set [2] (303.15 K) and 1507.4 ± 1.2 m/s in data set [2] (308.15 K). In addition, the mass density in data set [2] (293.15 K) stood at 1033.23 ± 1 kg/m3; in data set [2] (298.15 K), 1028.23 ± 1 kg/m3; in data set [2] (303.15 K), 1023.46 ± 1 kg/m3; in data set [2] (308.15 K), 1018.66 ± 1 kg/m3.
For the molecule `c1ccncc1` [pyridine], the “molar heat capacity at constant pressure” value in data set [1] (293.15 K) is given as 130.49 ± 2 J/K/mol; in data set [1] (298.15 K), 131.74 ± 2 J/K/mol; in data set [1] (303.15 K) it was 132.71 ± 2.1 J/K/mol; in data set [1] (308.15 K), 133.82 ± 2.1 J/K/mol. In addition, the speed of sound in data set [2] (293.15 K) is listed as 1442 ± 1.2 m/s; in data set [2] (298.15 K), 1417.8 ± 1.2 m/s; in data set [2] (303.15 K) it was 1398 ± 1.2 m/s; in data set [2] (308.15 K), 1377.1 ± 1.2 m/s. Moreover, the mass density in data set [2] (293.15 K) was 983.195 ± 1 kg/m3; in data set [2] (298.15 K) it was 978.252 ± 1 kg/m3; in data set [2] (303.15 K), 973.228 ± 1 kg/m3; in data set [2] (308.15 K), 968.171 ± 1 kg/m3.
